The test system of the data set is endotoxemic pigs (E. coli endotoxin infusion).
The mark [1] stands for this setting: during the endotoxemic period, versus fat emulsion.

The structures appear in SMILES notation.

As to `CC(C)c1cccc(C(C)C)c1O` [propofol, 2,6-diisopropylphenol], where the note is “already anaesthetised endotoxaemic pigs”, the “deaths from hypotension and/or release of gut bacteria into the bloodstream” value is on record as “No deaths”. In addition, under setting [1], the “arterial carbon dioxide tension (PaCO2)” value is on record as “lower” and the “arterial oxygen tension (PaO2)” value is given as “higher”. Further, under “endotoxaemic pigs”, the “counteracting endotoxin induced deterioration of arterial oxygen tension (PaO2)” value was “effective”.

The values are drawn from patent US20020037933A1, “Management of septic shock” (priority 2000, published 2002).
